Source: US20230357447A1, “TUMOR ACTIVATED MULTISPECIFIC ANTIBODIES FOR TARGETING CD28 AND PD-L1 AND METHODS OF USE THEREOF” (Janux Therapeutics, Inc., priority 2022, published 2023)

How the values were obtained:
[1] = tested on: anti-CD28 scFv (SEQ ID NO: 9); assay: Octet bio-layer interferometry kinetic binding of anti-CD28 scFv to peptides; set-up: species or system human; conditions: Octet RED96, 1:1 binding model
Method: (§1) Association and dissociation signals were recorded in real time and analyzed using a 1:1 binding model within the instrument software. Analysis using a 1:1 binding model enabled the calculation of the on and off rate constants as well as affinity, KD.
as §1

[2] = target: Ab-12; assay: Octet bio-layer interferometry kinetic binding of Ab-12 to peptides; conditions: Octet RED96, 1:1 binding model; for Kd: biotinylated peptide loaded at 200 nM on streptavidin biosensors, Ab-12 100, 50, 25, 12.5 nM; for kdis: peptide on sensor, Ab-12 100-12.5 nM
Method: Briefly, streptavidin biosensors were loaded with biotinylated peptides and baselined in buffer. […] After a short association period, sensors were transferred into buffer and the dissociation of bound anti-CD28 scFv or Ab-12 was measured. The timing and steps of the experiment are shown in the accompanying table. Association and dissociation signals were recorded in real time and analyzed using a 1:1 binding model within the instrument software. Analysis using a 1:1 binding model enabled the calculation of the on and off rate constants as well as affinity, KD.

[3] = biotinylated peptide loaded on streptavidin biosensor, anti-CD28 scFv in solution
[4] = peptide on sensor, CD28 scFv 100-12.5 nM

With `CSCC[C@H](N)C(=O)N[C@@H](CC(=O)O)C(=O)N[C@@H](Cc1c[nH]c2ccccc12)C(=O)N[C@H]1CSSC[C@@H](C(=O)N[C@@H](Cc2ccccc2)C(=O)N[C@@H](Cc2ccccc2)C(=O)O)NC(=O)[C@H](CC(=O)O)NC(=O)[C@H](C(C)C)NC(=O)[C@H](Cc2c[nH]c3ccccc23)NC(=O)[C@H](CCCNC(=N)N)NC(=O)[C@H](CCC(=O)O)NC(=O)[C@H](CCCNC(=N)N)NC(=O)[C@@H]2CCCN2C1=O` [Peptide-9] the “kdis” value [1, 3] was 0.0115 s⁻¹, the “kdis” value [1, 4] was 0.0123 s⁻¹ and the Kd [2] was 18.8 nM. For the same compound, the “kdis” value [2] was 0.00317 s⁻¹.
With `CSCC[C@@H]1NC(=O)[C@H](CC(=O)O)NC(=O)CNC(=O)[C@H](Cc2c[nH]c3ccccc23)NC(=O)[C@H](Cc2ccc(O)cc2)NC(=O)[C@H](Cc2c[nH]cn2)NC(=O)[C@@H](NC(=O)[C@H](Cc2ccc(O)cc2)NC(=O)CN)CSSC[C@@H](C(=O)NCC(=O)O)NC(=O)[C@H](Cc2c[nH]c3ccccc23)NC(=O)[C@H](CCSC)NC(=O)[C@H](C(C)C)NC1=O` [Peptide-12] the “kdis” value [1, 4] was 0.00167 s⁻¹, the Kd [2] was 13.1 nM and the “kdis” value [2] was 0.00127 s⁻¹.
With `CSCC[C@@H]1NC(=O)[C@H](CC(=O)O)NC(=O)[C@H](CCCNC(=N)N)NC(=O)[C@@H]2CCCN2C(=O)[C@@H](NC(=O)[C@H](Cc2c[nH]c3ccccc23)NC(=O)[C@H](CC(=O)O)NC(=O)[C@@H](N)CCSC)CSSC[C@@H](C(=O)N[C@@H](Cc2ccccc2)C(=O)N[C@@H](CO)C(=O)O)NC(=O)[C@H](C(C)C)NC(=O)[C@H](CO)NC(=O)[C@H](Cc2c[nH]c3ccccc23)NC1=O` [Peptide-44] the “kdis” value [1, 3] was 0.00812 s⁻¹.
`CSCC[C@@H]1NC(=O)[C@H](Cc2ccccc2)NC(=O)[C@H](CCCNC(=N)N)NC(=O)[C@@H]2CCCN2C(=O)[C@@H](NC(=O)[C@H](Cc2c[nH]c3ccccc23)NC(=O)[C@H](CC(=O)O)NC(=O)[C@@H](N)CCSC)CSSC[C@@H](C(=O)N[C@@H](Cc2ccccc2)C(=O)N[C@@H](CC(N)=O)C(=O)O)NC(=O)[C@H](CCC(=O)O)NC(=O)[C@H](CC(=O)O)NC(=O)[C@H](Cc2c[nH]c3ccccc23)NC1=O` [Peptide-45] was tested, and the “kdis” value [1, 3] was 0.00364 s⁻¹.
For `CSCC[C@@H]1NC(=O)[C@H](Cc2c[nH]cn2)NC(=O)[C@H](CCCNC(=N)N)NC(=O)[C@@H]2CCCN2C(=O)[C@@H](NC(=O)[C@H](Cc2c[nH]c3ccccc23)NC(=O)[C@H](CC(=O)O)NC(=O)[C@@H](N)CCSC)CSSC[C@@H](C(=O)N[C@@H](Cc2ccccc2)C(=O)N[C@@H](C)C(=O)O)NC(=O)[C@H](Cc2ccc(O)cc2)NC(=O)[C@H](CC(N)=O)NC(=O)[C@H](Cc2c[nH]c3ccccc23)NC1=O` [Peptide-46], the “kdis” value [1, 3] was 0.00218 s⁻¹.
For `CSCC[C@H](N)C(=O)N[C@@H](CC(=O)O)C(=O)N[C@@H](Cc1c[nH]c2ccccc12)C(=O)N[C@H]1CSSC[C@@H](C(=O)N[C@@H](Cc2ccccc2)C(=O)N[C@@H](C)C(=O)O)NC(=O)[C@H](CCC(=O)O)NC(=O)[C@H](Cc2c[nH]cn2)NC(=O)[C@H](Cc2c[nH]c3ccccc23)NC(=O)[C@H](CC(C)C)NC(=O)[C@H](CO)NC(=O)[C@H](CCCNC(=N)N)NC(=O)[C@@H]2CCCN2C1=O` [Peptide-47], the “kdis” value [1, 3] was 0.00201 s⁻¹.
In the case of `CSCC[C@H](N)C(=O)N[C@@H](CC(=O)O)C(=O)N[C@@H](Cc1c[nH]c2ccccc12)C(=O)N[C@H]1CSSC[C@@H](C(=O)N[C@@H](Cc2ccccc2)C(=O)N[C@@H](C)C(=O)O)NC(=O)[C@H](C(C)C)NC(=O)[C@H](Cc2c[nH]cn2)NC(=O)[C@H](Cc2c[nH]c3ccccc23)NC(=O)[C@H](CC(C)C)NC(=O)[C@H](Cc2ccc(O)cc2)NC(=O)[C@H](CCCNC(=N)N)NC(=O)[C@@H]2CCCN2C1=O` [Peptide-48], the “kdis” value [1, 3] is reported as 0.00187 s⁻¹.
In the case of `CSCC[C@H](N)C(=O)N[C@@H](Cc1c[nH]cn1)C(=O)N[C@@H](Cc1c[nH]c2ccccc12)C(=O)N[C@H]1CSSC[C@@H](C(=O)N[C@@H](Cc2ccc(O)cc2)C(=O)N[C@@H](CC(N)=O)C(=O)O)NC(=O)[C@H](CC(C)C)NC(=O)[C@H](Cc2ccc(O)cc2)NC(=O)[C@H](Cc2c[nH]c3ccccc23)NC(=O)[C@H](CC(C)C)NC(=O)[C@H](CC(=O)O)NC(=O)[C@H](C(C)C)NC(=O)[C@@H]2CCCN2C1=O` [Peptide-49], the “kdis” value [1, 3] is reported as 0.00186 s⁻¹.
`CSCC[C@H](N)C(=O)N[C@@H](CC(=O)O)C(=O)N[C@@H](Cc1c[nH]c2ccccc12)C(=O)N[C@H]1CSSC[C@@H](C(=O)N[C@@H](Cc2ccccc2)C(=O)N[C@@H](C)C(=O)O)NC(=O)[C@H](C(C)C)NC(=O)[C@H](CO)NC(=O)[C@H](Cc2c[nH]c3ccccc23)NC(=O)[C@H](CC(C)C)NC(=O)[C@H](Cc2c[nH]cn2)NC(=O)[C@H](C(C)C)NC(=O)[C@@H]2CCCN2C1=O` [Peptide-50] was tested, and the “kdis” value [1, 3] was 0.00443 s⁻¹.
